{"source": "patent US20190365927A1", "about": "“COMPOSITION FOR PHOTODYNAMIC THERAPY USING GENE EXPRESSING FLUORESCENT PROTEIN AND PHOTOSENSITIZER, AND PHOTODYNAMIC THERAPY METHOD USING SAME” (priority 2017, published 2019)", "key": {"eGFP+ 4T1 cells": {"system": "eGFP+ 4T1 cells", "assay": "In vitro PDT with rose bengal and blue laser light, MTT analysis", "assay_type": "cell-based", "method": "The photo inducing death of GFP− and GFP+ cells after blue light irradiation was measured by MTT analysis in the presence or absence of rose bengal (RB). The specific experimental procedure is as follows.\nRB was diluted with DMEM containing 10% FBS to produce RB at concentrations of 6.25, 12.5, 25, 50, and 100 μM. GFP− and GFP+ cells were pre-incubated in 96-well, black, and clear bottom plates at a density of 2×10^4 cells per well. Then cells were incubated with RB for 4 hours. The addition of a fresh culture medium without photosensitizer to the wells was performed. This was used as an untreated control. Cells were washed 3 times with PBS buffer.\nIn the PDT-treated group, the cell was irradiated with blue laser light (473 nm, radiation dose rate=80 mW/cm^2) for 1 to 60 seconds. The toxicity of pure RB on GFP+ and GFP− cells was measured in the dark room. After the irradiation, the fresh culture medium was added to the wells, and cells were cultured again for 24 hours. The medium was then measured by MTT assay. 150 μL of solubilizing solution and stop solution were added thereto, followed by incubation at 37° C. for 4 hours. The absorbance of the reaction solution was measured at 570 nm. Cell viability was calculated by the following equation:\n(ODtreated/ODcontrol)×100%.\nEach experiment was performed independently. Cell death was measured by LDH analysis.\nTh cells were seeded on a 24-well plate at a density of 5×10^4 per well. After the photosensitizer treatment thereto, blue light was irradiated thereto as described above. Each culture medium was prepared. For LDH analysis, LDH Cytotoxicity Assay kit (Cayman Chemical Company, Ann Arbor, Mich., USA) was used according to the producer protocol. 100 μL of the supernatant of the cultured cells was transferred from the well to a corresponding well of the new plate, and then 100 μL of the reaction solution was added to each well. The plates were incubated for 30 minutes at room temperature while executing gentle shaking thereof with an orbital shaker. The absorbance was measured at 490 nm using a plate reader."}, "GFP cells (GFP-H460)": {"system": "GFP cells (GFP-H460)", "assay": "Experiment using rat cannulation, counting GFP-cancer cells in blood", "assay_type": "in vivo", "settings": "cells pretreated with 100 μM RB, injected IV into SD rats, 473 nm 80 mW for 5 minutes at cannulated tubing", "method": "(1) GFP cells (GFP-H460) were seeded into two 100-mm dishes at a concentration of 1×10^7 cells/ml. On the next day, 100 μM of rose bengal (RB) was applied thereto (in the subsequent procedure, light exposure was avoided as much as possible). In 4 hours after RB treatment, the cells were harvested using trypsin, suspended in FBS pre-culture medium at 2×10^6 cells/300 μl, and placed in a 1.5 ml tube.\nSix out of 10 8 weeks aged SD rats were injected in IV (tail) manner with the cell solution. The […] sections of the 5 SD rats were incised. The carotid artery and venous vein were discovered and cannulated using a 279 μm ID×609 μm OD×152 μm wall sized polyethylene tubing (BD, 427401) wet with heparin. Thus, blood flow was carried out through the tubing. Irradiation of 473 nm light with an intensity of 80 mW to the cannulated tubing site was performed for 5 minutes. The irradiated rats were weighed and incubated overnight in a constant-temperature constant-humid chamber. […]\n1 ml of 0.1 μg/ml DAPI/PBST solution was added thereto. […] GFP-cancer cells were counted using a fluorescent microscope (Nikon, Diaphot 300), and the numbers of GFP-cancer cells according to the presence or absence of light irradiation were compared with each other. […]"}}}
{"smiles": "O=C1OC2(c3cc(I)c(O)c(I)c3Oc3c2cc(I)c(O)c3I)c2c(Cl)c(Cl)c(Cl)c(Cl)c21", "note": "[RB, rose bengal]", "values": [{"measurement": "selective cell death of eGFP+ versus eGFP− 4T1 cells", "setting": "eGFP+ 4T1 cells; blue laser light (473 nm), FIG. 1B", "value": "the cells selectively died"}, {"measurement": "eGFP+ cells selectively killed", "setting": "eGFP+ 4T1 cells; exposed to 473 nm laser light after RB treatment, FIG. 2A", "value": "~60", "unit": "%"}, {"measurement": "cytotoxicity, eGFP+ versus eGFP− cells", "setting": "eGFP+ 4T1 cells; extremely high concentrations of RB and extremely long exposure time, FIG. 2C", "value": "a similar level of cytotoxicity was observed between eGFP+ and eGFP− cells"}, {"measurement": "cell death percentage, eGFP+ versus eGFP− cells", "setting": "eGFP+ 4T1 cells; higher RB concentration and longer exposure time, FIG. 2C", "value": "cell death percentage of eGFP+ cells was higher than that of eGFP− cells"}, {"measurement": "GFP-cancer cells in blood with or without light irradiation", "setting": "GFP cells (GFP-H460)", "value": "only GFP cells were specifically killed"}]}
